According to patent US4087461A, “Anti-androgenic steroids” (The Johns Hopkins University, priority 1977, dated 1978):

Tests used:
[1] = target: Δ^5 -3-ketosteroid isomerase (Comamonas testosteroni, UniProt P00947); test: inhibition of isomerase by allenic ketones, pseudo first order conditions; format: biochemical, Pseudomonas testosteroni; conditions: for half life for loss of enzyme activity / isomerisation of the allenic ketone under assay conditions: allenic ketone 200 μM, 1 mM phosphate buffer, pH = 7; for isomerisation of the allenic ketone under assay conditions: isomerase
Chain of Δ^5 -3-ketosteroid isomerase (P00947 whole entry, stated change not applied): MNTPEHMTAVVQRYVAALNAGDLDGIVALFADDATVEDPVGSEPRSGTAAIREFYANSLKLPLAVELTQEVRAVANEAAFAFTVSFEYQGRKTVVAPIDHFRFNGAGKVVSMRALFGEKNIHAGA
From the text: As noted above, the acetylenic compounds of the invention, e.g. estryne and pregnyne, are converted into the corresponding conjugated allenic ketones which then react irreversibly with the enzyme. These allenic ketones are also novel and constitute an important embodiment of the invention. The allenic ketones derived from estryne are 6β(H)-5,10-secoestra-4,5-diene-3,10,17-trione and 6α(H)-5,10-secoestra-4,5-diene-3,10,17-trione. These allenic ketones have been tested as inhibitors of isomerase and have been found effective in this regard.

[2] = tested on: endogenous androgen biosynthesis; test: study in intact male rats: weights of sex accessory tissue and other organs; format: in vivo, male Sprague-Dawley rats
Description: Studies with intact male Sprague-Dawley rats (300g body weight) are illustrated for compounds (1) and (2).
Similarly, compound (2), […] rats at a dosage of 20mg per kilo for 7 days produced 20% reduction in weight of the ventral prostate and 28% reduction of the dorsal lateral prostate.
The following data illustrates the inhibiting effect of estryne and pregnyne on Δ^5 -3-ketosteroid isomerase (EC 5.3.3.1) as evidenced by a depression of the wet weight of the sex accessory tissue in the mature male rat treated with the estryne and pregnyne.
A. Male rats were used to assess the effect of estryne on endogenous androgen biosynthesis at varying doses (1-20 mg/kg body weight). […] On the eighth day the animals were sacrificed and the ventral prostate, dorsal lateral prostate, seminal vesicles, testes, kidneys, and adrenals were removed and weighed. Samples of each tissue were preserved in 10% buffered formalin for histological examination.
B. Male rats were treated with 19-norpregnyne by a regimen exactly as described for the estryne.

immature uterus = test: study of estrogenic activity (uterine weight of immature mice); conditions: same dosage schedule as estryne
Description: The animals were housed in a temperature controlled room under a constant lighting schedule and maintained on a diet of Charles River Rat Formula and water ad libitum. The diet of the hypophy-sectomized animals was supplemented with organges.
On the fourth day the uteri were removed and weighed.
Thus, immature female mice received estryne at doses up to a maximum of 100 μg total dose over three days, and the wet weight of the uteri were determined.

[3] = tested on: ventral prostate and dorsal lateral prostate; test: effects of 6β(H)-allenic ketone on intact male Sprague-Dawley rats: body and prostate weights; format: in vivo; conditions: 0.6mg in propylene glycol (0.2ml) daily for 7 days, i.p.
Description: Effects of 6β(H)-5,10-Seco-19-norestra-4,5-diene-3,10,17-trione on intact male Sprague-Dawley rats
The compound (0.6mg) dissolved in propylene glycol (0.2ml) was administered daily for 7 days by the intraperitoneal route. The experimental group and control group each comprised 5 animals; and weghts of animals as well the wet tissue weights of ventral prostate and dorsal lateral prostate are averaged for each group.

[4] = listed as 6β(H)-5,10-secoestra-4,5-diene-2,10,17-trione

C[C@]12CC[C@@H]3C(=O)CCC(=O)C=C=CC[C@H]3[C@@H]1CCC2=O [6α(H)-5,10-secoestra-4,5-diene-3,10,17-trione]
half life for loss of enzyme activity [1]: 11 min | isomerisation of the allenic ketone under assay conditions [1]: partially converted to the β-isomer

C[C@]12CC[C@@H]3C(=O)CCC(=O)CC#CC[C@H]3[C@@H]1CCC2=O [Compound 5, 5,10-secoestr-5-yne-3,10,17-trione]
reduction in weight of the ventral prostate ([2]; 13mg per kilo per day, s.c. in sesame oil, 7 days): 30% | Average Weight of Ventral Prostate ([2]; 13mg/Kg (so in the source) in propylene glycol (0.2ml) per day for 7 days, i.p., control 421 mg): 302 mg | Average Weight of Ventral Prostate ([2]; 13mg/Kg in sesame oil (0.2ml) per day for 7 days, s.c., control 238 mg): 167 mg

C[C@]12CC[C@@H]3c4ccc(O)cc4CC[C@H]3[C@@H]1CC[C@@H]2O [17β-estradiol]
dose giving maximum stimulation (uterine weight) (immature uterus): about 8 μg | lowest dose giving a positive response (uterine weight) (immature uterus; "as low as"): 0.67 µg

C[C@]12CC[C@@H]3C(=O)CCC(=O)C=C=CC[C@H]3[C@@H]1CCC2=O [6β(H)-5,10-secoestra-4,5-diene-3,10,17-trione]
Wt. of Dorsal Lateral Prostate ([3]; control 299 mg): 235 mg | Wt. of Ventral Prostate ([3]; control 574 mg): 488 mg | Wt. of Animals ([3]; control 388 g): 382 g | half life for loss of enzyme activity [1, 4]: 9 min | inhibition of isomerase ([1]; in words): effective | isomerisation of the allenic ketone under assay conditions [1, 4]: partially converted to the 6α isomer
